Assay results from patent US11534434B2 (Karuna Therapeutics, Inc., priority 2019, dated 2022).

How the values were obtained:
[1] = Storage stability of the tartrate salt (reanalysis by LC-MS, 1H NMR, 19F NMR); format: physicochemical; details: six months of storage at 0° C.; LC-MS, 1H NMR, 19F NMR
Protocol: The tartrate salt of the title compound was unstable at test storage conditions. Although the initial NMR spectra were clean, the LCMS purity was about 75%. After storage at 0° C. for six months, the sample was reanalyzed by ^1H-NMR, ^19F-NMR, and LC-MS.

[2] = Human liver microsome stability; format: in vitro ADME; details: human liver microsomes; for microsomal CLint at 100 nM: apparent intrinsic clearance, no unit in table (μL/min/pmol, μL/min/mg or μL/min/Mcell); for Parent at 60 min (%) / half-life at 100 nM: 100 nM, 37° C., tartrate salt
Protocol: Human Liver Microsome Stability
Test compounds were dissolved in DMSO to prepare 10 mM stock solutions, diluted to a final test concentration of 100 nM, and incubated at 37° C. with human liver microsomes. Metabolic stability, expressed as a percent of the parent compound remaining, was assessed at 0, 15, 30, 45, and 60 minutes and calculated by comparing the compound's peak area at the time point relative to that at time-0. The half-life (T1/2) was estimated from the slope of the initial linear range of the logarithmic curve of compound remaining (%) vs. time, assuming first-order kinetics. The apparent intrinsic clearance (CLint, in μL/min/pmol, μL/min/mg or μL/min/Mcell) was calculated according to the following formula: CLint=0.693 T1/2*(mg protein/μL or million cells/μL or pmol CYP isoyme/μL).

[3] = target: T1, human M5 mAChR (Homo sapiens, UniProt P08912); test: Whole-cell functional agonist activity, FLIPR Ca2+ release, CHOK1-based human M5 mAChR stable cell line; details: for EC50: agonist, FLIPR Ca2+ release, CHOK1 human M5 cells; for Emax: top of curve, % activity vs MAX control ligand, FLIPR Ca2+
T1 construct: expressed in transfected cells
T1 sequence (P08912 1-532): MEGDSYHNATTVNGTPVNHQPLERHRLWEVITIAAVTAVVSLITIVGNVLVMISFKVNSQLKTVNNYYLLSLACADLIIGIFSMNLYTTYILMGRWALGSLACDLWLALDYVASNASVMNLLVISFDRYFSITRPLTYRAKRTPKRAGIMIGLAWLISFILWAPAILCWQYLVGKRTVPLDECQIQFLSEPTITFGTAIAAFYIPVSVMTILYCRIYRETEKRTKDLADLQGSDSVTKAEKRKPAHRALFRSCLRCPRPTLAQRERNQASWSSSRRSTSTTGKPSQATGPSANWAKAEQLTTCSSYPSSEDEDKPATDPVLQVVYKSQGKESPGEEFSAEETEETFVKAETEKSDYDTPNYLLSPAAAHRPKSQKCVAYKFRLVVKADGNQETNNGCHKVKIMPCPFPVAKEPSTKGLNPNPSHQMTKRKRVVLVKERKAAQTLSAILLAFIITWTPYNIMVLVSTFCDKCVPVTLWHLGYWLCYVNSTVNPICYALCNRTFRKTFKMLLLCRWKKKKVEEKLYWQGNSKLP
Description: Whole-cell functional agonist activity in cells expressing recombinant human muscarinic receptor subtypes.
ThermoFisher's FLIPR™ (Fluorescence Imaging Plate Reader) was used to quantify Ca^2+ release, a functional effect associated with Gaq-coupled M1 and M5 mAChRs. CisBio's phospho-ERK (pERK) Thr202/Tyr204 was used to evaluate Gai/o-coupled M2 and M4 mAChRs responses.
One day before the assay, M1, M3, and M5 cells were thawed out and plated at 10,000 cells/well into black-walled, clear-bottom, Poly-D-lysine coated 384-well microplates and incubated at 37° C. and 5% CO2 in MEME+10% FBS+1× penicillin/streptomycin/glutamine, for the M1 and M3 cell lines and F-12+10% FBS+1× penicillin/streptomycin/glutamine for the M5 cell line. […] The M1 and M5 responses were analyzed using the CBIS data analysis suite (ChemInnovation, CA).
Percentage activity was calculated using the following formula: % Activity=100%×(mean RFU of test sample mean RFU of vehicle control)/(mean MAX RFU control ligand mean RFU of vehicle control) where RFU is relative fluorescence unit. The M2 and the M4 cells were thawed out one day before the assay and plated at 2,000 and 1,000 cells per well, respectively, in […] of DMEM/F12+10% FBS in ProxiPlate 384-well white-walled, white-bottom tissue culture-treated plates and incubated at 37° C. and 5% CO2 overnight. Before the assay, cells were serum-starved at 37° C. in 5% CO2 for 4 hours by replacing culture media with […] of F12 media with 8 mM HEPES. The pERK assay was run according to assay kit instructions with minor volume modifications outlined below.

SMILES: CN1CCC=C(c2nsnc2OCCCCCC(F)(F)F)C1 [Example 1, 3-(1-Methyl-1,2,5,6-tetrahydropyridin-3-yl)-4-((6,6,6-trifluorohexyl)oxy)-1,2,5-thiadiazole]
- storage stability of tartrate salt [1]: no meaningful changes were observed
- microsomal CLint at 100 nM [2]: 447 µL/min/mg
- Parent at 60 min (%) [2]: 7%
- half-life at 100 nM [2]: 16 min
- EC50 [3]: 22.4 nM
- Emax [3]: 85%

SMILES: CN1CCC=C(c2nsnc2OCCCCCC(F)F)C1 [Example 6, 3-((6,6-difluorohexyl)oxy)-4-(1-methyl-1,2,5,6-tetrahydropyridin-3-yl)-1,2,5-thiadiazole]
- microsomal CLint at 100 nM [2]: 413 µL/min/mg
- Parent at 60 min (%) [2]: 8%
- half-life at 100 nM [2]: 17 min
- EC50 [3]: 14.7 nM
- Emax [3]: 95%

SMILES: CN1CCC=C(c2nsnc2OCCCCCCF)C1 [Example 7, 3-((6-Fluorohexyl)oxy)-4-(1-methyl-1,2,5,6-tetrahydropyridin-3-yl)-1,2,5-thiadiazole]
- microsomal CLint at 100 nM [2]: 553 µL/min/mg
- Parent at 60 min (%) [2]: 3%
- half-life at 100 nM [2]: 13 min
- EC50 [3]: 13.2 nM
- Emax [3]: 90%

SMILES: CN1CCC=C(c2nsnc2OCCCCC(C)(F)F)C1 [Example 8, 3-((5,5-Difluorohexyl)oxy)-4-(1-methyl-1,2,5,6-tetrahydropyridin-3-yl)-1,2,5-thiadiazole]
- microsomal CLint at 100 nM [2]: 711 µL/min/mg
- Parent at 60 min (%) [2]: 2%
- half-life at 100 nM [2]: 10 min
- EC50 [3]: 27.2 nM
- Emax [3]: 85%

SMILES: CCC(F)(F)CCCOc1nsnc1C1=CCCN(C)C1 [Example 9, 3-((4,4-Difluorohexyl)oxy)-4-(1-methyl-1,2,5,6-tetrahydropyridin-3-yl)-1,2,5-thiadiazole]
- microsomal CLint at 100 nM [2]: 576 µL/min/mg
- Parent at 60 min (%) [2]: 3%
- half-life at 100 nM [2]: 12 min
- EC50 [3]: 140 nM
- Emax [3]: 40%

SMILES: CCCCC(F)(F)COc1nsnc1C1=CCCN(C)C1 [Example 11, 3-((2,2-Difluorohexyl)oxy)-4-(1-methyl-1,2,5,6-tetrahydropyridin-3-yl)-1,2,5-thiadiazole]
- microsomal CLint at 100 nM [2]: 2000 µL/min/mg
- Parent at 60 min (%) [2]: 7%
- half-life at 100 nM [2]: 3 min
- EC50 [3]: 2290 nM
- Emax [3]: 45%
